# From patent US12173320B2, “Production of red blood cells and platelets from stem cells” (BOSTON MEDICAL CENTER CORPORATION, priority 2012, dated 2024)
# Test system: AhR (CYP1B1 target gene expression) in iPSCs
# Assay: Quantitative RT-PCR of AhR target gene CYP1B1 in iPSCs
# Assay type: cell-based, human
# Description: RNA was extracted using the RNeasy kit (Qiagen) according to the manufacturer's instructions and DNase treated using the DNA-free kit (Ambion AM1906). Reverse transcription into cDNA was performed using the High Capacity cDNA Reverse Transcription Kit (Applied Biosystems 4368814). Quantitative (real time) PCR amplification of cDNA was performed using Taqman probes for AHR (Hs00169233 ml), CYP1B1 (Hs002382916 sl), HBA (Hs00361191 gl), HBB (Hs00758889 sl), HBG (Hs01629437 sl), vWF (Hs00169795 ml), PF4 (Hs00427220 gl), NF-E2 (Hs00232351 ml) and CD62P (Hs00927900 ml) and run on the Applied Biosystems StepOne machine. […]
# To characterize AhR expression and functionality in both undifferentiated iPSCs and directly differentiated MEPs, AhR protein levels were determined via Western blot in these populations. AhR receptor was robustly expressed in day 30 and day 60 MEPs (FIG. 4A). However, AhR protein was not detected by western blotting in iPSC populations, and we postulated that AhR was expressed at extremely low levels in iPSCs, i.e., below the level of detectability with the antibodies used for Western blots. To test this hypothesis, the ability of FICZ to induce a prototypic AhR-target gene, CYPIB1, in iPSCs or, as a positive control, MEPs was assessed by quantitative RT-PCR.
smiles,measurement,value
"O=Cc1c2c(cc3c1=Nc1ccccc1-3)=Nc1ccccc1-2 [FICZ, 6-formylindolo[3,2-b]carbazole]",CYP1B1 expression,statistically significant increases
